Experimental data published in EP1908478B1, “Pharmaceutical preparation and method of treatment of human malignancies with arginine deprivation” (Bio-Cancer Treatment International Limited, priority 2002, dated 2003).

Experiments:
human liver Arginase = human liver Arginase (Homo sapiens, UniProt P05089); conditions: published value in literature; substrate arginine; cited from earlier work
[1] = molecular target: T1, recombinant human Arginase I, native (non-pegylated), 6xHis-tagged, B. subtilis-expressed, SEQ ID NO: 3 (Homo sapiens, UniProt P05089); test: Arginase activity, kinetic properties (method of Ikemoto et al. 1990); format: biochemical; conditions: substrate arginine
T1 sequence (P05089 1-322): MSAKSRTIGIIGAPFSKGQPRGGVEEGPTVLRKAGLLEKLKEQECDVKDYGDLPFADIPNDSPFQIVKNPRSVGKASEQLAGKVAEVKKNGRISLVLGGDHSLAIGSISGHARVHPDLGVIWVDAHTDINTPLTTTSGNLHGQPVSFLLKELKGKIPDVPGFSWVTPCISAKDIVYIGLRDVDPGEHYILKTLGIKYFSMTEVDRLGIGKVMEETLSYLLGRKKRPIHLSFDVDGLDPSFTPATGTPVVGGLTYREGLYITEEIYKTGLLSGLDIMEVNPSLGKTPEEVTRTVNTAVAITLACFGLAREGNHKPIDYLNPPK

[2] = molecular target: T2, pegylated Arginase (recombinant human Arginase I, SEQ ID NO: 3, modified with mPEG-SPA, MW 5,000) (Homo sapiens, UniProt P05089); test: as above; format: biochemical; conditions: substrate arginine
T2 sequence (P05089 1-322): T1 sequence (P05089 1-322)
Experimental: Moreover, about 1 mM of Mn^2+ ions and a temperature of 30-50 degree C are required to achieve maximum activity for the native Arginase.

## N=C(N)NCCC[C@H](N)C(=O)O [arginine]
Human liver Arginase
  Km: 2.6 mM
[1]
  Km: 1.9 ± 0.7 mM
  Vmax: 518 µmol urea min^-1. mM^-1
  kcat: 2.0 ± 0.5 s⁻¹
[2]
  Km: 2.9 ± 0.3 mM
  Vmax: 360 µmol urea min^-1 mM^-1
